According to ChEMBL document CHEMBL1201862, “PubChem BioAssay data set” (2004):
Active and inactive are the calls of the source.

Experiments:
[1] = target: Neurotensin receptor type 1 (Homo sapiens, UniProt P30989); type: functional;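 note: Image-based confirmatory dose-response assay measuring agonist activity at NTR1; NTR1-expressing U2OS osteosarcoma cells imaged for beta-arrestin GFP spot formation; agonist potency where compounds increase beta-arrestin recruitment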
[2] = target: T1, Ubiquitin-conjugating enzyme E2 N (Homo sapiens, UniProt P61088); type: functional
T1 sequence (P61088 whole entry): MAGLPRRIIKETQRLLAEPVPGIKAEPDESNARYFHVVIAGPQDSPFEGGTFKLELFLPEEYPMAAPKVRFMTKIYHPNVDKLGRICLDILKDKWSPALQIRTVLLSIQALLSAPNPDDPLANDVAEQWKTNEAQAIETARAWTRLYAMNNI

[3] = Luminescence Cell-Based Dose Retest to Confirm Inhibitors of Cancer Stem Cells. [Related pubchem assays (depositor defined):AID2717, AID2721]; type: functional; conditions: Homo sapiens
[4] = target: T2, Fructose-bisphosphate aldolase (Mycobacterium tuberculosis, UniProt P9WQA3); assay: Fluorescence-based biochemical high throughput dose response assay for inhibitors of the fructose-bisphosphate aldolase (FBA) of M. tuberculosis.; type: functional
T2 sequence (P9WQA3 whole entry): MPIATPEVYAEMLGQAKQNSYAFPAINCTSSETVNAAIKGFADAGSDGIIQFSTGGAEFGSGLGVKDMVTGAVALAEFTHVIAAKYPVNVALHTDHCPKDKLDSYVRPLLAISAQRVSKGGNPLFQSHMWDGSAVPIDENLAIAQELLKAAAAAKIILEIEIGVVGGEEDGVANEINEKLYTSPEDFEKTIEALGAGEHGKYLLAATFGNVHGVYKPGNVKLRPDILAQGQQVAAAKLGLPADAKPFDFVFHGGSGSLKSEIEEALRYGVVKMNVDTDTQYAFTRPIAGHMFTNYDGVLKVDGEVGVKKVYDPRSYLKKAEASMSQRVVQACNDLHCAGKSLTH

[5] = target: FAD-linked sulfhydryl oxidase ALR (Homo sapiens, UniProt P55789); assay: inhibitors of human ALR sulfhydryl oxidase, dose response, biochemical, H2O2 detection, luminescence, cherry-pick (AID 493248)
Major prion protein = Major prion protein (Homo sapiens, UniProt P04156); type: functional, cell-based
cells [6] = assay: cells
cells [7] = type: functional, cell-based
cells [8] = type: functional, cell-based; remark: listed apart in the source
[9] = target: T3, Trace amine-associated receptor 1 (Homo sapiens, UniProt Q96RJ0); assay: Fluorescence-based cell-based high throughput dose response assay to identify agonists of the human trace amine associated receptor 1 (TAAR1).; type: functional
T3 sequence (Q96RJ0 whole entry): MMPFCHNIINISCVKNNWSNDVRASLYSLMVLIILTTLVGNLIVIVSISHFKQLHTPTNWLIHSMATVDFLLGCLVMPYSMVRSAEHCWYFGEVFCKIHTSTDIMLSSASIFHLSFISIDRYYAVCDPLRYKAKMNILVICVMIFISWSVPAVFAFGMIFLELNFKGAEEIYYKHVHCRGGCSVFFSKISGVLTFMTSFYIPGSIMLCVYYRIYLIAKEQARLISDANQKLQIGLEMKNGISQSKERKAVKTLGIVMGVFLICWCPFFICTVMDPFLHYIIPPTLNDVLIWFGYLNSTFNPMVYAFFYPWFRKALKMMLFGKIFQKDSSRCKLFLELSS

[10] = target: T3, Trace amine-associated receptor 1; assay: Counterscreen for agonists of the human trace amine associated receptor 1 (hTAAR1): Fluorescence-based cell-based high throughput dose response assay to identify hTAAR1 agonist that also desensitize TAAR1 receptor response.; type: functional
[11] = cytotoxicity in HEK-293T cells, dose response, cytotoxicity control for BCR NF-kB inhibitor project, luminescence, B-cell screen hits (AID 489021); type: functional, cell-based;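 note: HEK-293T cells carrying an NF-kB luciferase reporter; cells exposed to compound for about 14 hours before viability readout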
[12] = A Cell Based Secondary Assay To Explore Cytotoxicity of Compounds that Sensitize Mycobacterium Tuberculosis to Beta-Lactam Antibiotics.; type: functional
[13] = target: T4, DNA repair protein RAD52 homolog (Homo sapiens, UniProt P43351); type: functional, biochemical
T4 sequence (P43351 whole entry): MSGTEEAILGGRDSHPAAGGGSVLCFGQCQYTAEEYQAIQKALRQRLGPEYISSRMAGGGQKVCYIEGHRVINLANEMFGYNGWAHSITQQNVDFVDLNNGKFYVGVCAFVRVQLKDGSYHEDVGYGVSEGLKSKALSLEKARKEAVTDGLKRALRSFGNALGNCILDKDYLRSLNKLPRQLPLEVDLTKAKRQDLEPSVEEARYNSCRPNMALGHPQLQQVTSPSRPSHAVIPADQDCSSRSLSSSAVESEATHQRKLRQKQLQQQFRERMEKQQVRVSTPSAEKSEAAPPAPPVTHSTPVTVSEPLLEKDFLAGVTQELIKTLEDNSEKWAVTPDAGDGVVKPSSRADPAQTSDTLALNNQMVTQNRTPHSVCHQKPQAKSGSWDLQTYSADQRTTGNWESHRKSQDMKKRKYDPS

[14] = target: T1, Ubiquitin-conjugating enzyme E2 N; type: functional; remark: listed apart in the source
Bcl-2-related protein A1 = target: T5, Bcl-2-related protein A1 (Mus musculus, UniProt Q07440); type: functional;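 note: confirmatory dose–response counterscreen on Bfl-1, used to check hits from a UBC13 polyubiquitin inhibitor campaign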
T5 sequence (Q07440 whole entry): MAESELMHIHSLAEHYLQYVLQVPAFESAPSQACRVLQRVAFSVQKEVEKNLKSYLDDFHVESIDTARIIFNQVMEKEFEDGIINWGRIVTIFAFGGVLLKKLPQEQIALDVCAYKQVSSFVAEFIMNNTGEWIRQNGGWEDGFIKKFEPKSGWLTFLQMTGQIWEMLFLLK

[15] = HEp-2 cell cytotoxicity, dose response, cytotoxicity control for RSV inhibitor project, HTS (AID 2410); type: functional; conditions: human respiratory syncytial virus
Vero = assay: cells; type: functional, cell-based; conditions: Chlorocebus sabaeus
cells [16] = assay: cells; remark: listed apart in the source
H9c2 = assay: cells; type: functional, cell-based; conditions: Rattus norvegicus, H9c2, Myocardium;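 note: confirmatory concentration-response retest of ultra-high-throughput screening hits for modulation of myocardial damage; cell death induced by hydrogen peroxide oxidative stress; compound pretreatment for 60 min then peroxide exposure for 2 h; potency is for protecting the cells against peroxide damage rather than for killing them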
[17] = inhibitors of HIV Env-driven cell fusion, dose response, cherry-pick (AID 652057); type: functional, cell-based
[18] = off-target signal loss in HeLa-CEM21 co-culture – HeLa F-luc CTL cells, cherry-picked, counter-screen for HIV-1 Env fusion inhibitor project, dose response (AID 652040); type: functional, cell-based;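 note: potency for signal decrease marking cytotoxic or nonspecific inhibition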
P388/ADR = assay: cells; type: functional; conditions: Mus musculus
P388 = assay: cells; type: functional; conditions: Mus musculus
SN12K1 = assay: cells; type: functional; conditions: Homo sapiens
[19] = target: T6, DNA repair and recombination protein RAD54-like (Homo sapiens, UniProt Q92698); assay: inhibitors of human RAD54 branch migration, confirmation, biochemical, fluorescence, cherry-picked samples, dose series (AID 651657); type: functional
T6 sequence (Q92698 whole entry): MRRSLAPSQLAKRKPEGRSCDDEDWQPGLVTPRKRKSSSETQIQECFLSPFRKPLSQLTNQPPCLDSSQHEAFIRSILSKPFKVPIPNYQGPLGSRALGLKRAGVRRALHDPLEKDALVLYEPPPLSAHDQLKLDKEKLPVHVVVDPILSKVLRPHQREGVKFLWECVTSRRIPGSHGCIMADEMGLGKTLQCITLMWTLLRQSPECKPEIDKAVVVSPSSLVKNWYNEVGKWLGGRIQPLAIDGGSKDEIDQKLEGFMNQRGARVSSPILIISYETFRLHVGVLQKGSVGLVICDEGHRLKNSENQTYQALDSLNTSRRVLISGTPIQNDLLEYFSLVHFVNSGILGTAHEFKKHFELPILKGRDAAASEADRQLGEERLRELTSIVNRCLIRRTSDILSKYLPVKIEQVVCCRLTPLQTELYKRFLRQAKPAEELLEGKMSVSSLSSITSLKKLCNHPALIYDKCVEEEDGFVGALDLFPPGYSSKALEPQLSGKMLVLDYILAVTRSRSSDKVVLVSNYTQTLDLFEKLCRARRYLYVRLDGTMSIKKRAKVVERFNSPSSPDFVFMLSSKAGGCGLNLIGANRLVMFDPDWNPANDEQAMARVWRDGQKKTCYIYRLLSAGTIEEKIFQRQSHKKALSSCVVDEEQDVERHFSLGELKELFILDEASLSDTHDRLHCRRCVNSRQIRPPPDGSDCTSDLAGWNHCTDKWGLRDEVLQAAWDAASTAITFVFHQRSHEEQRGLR

[20] = cytotoxicity in OVCAR8 ovarian cancer cells, dose response, PAX8 project, cell-based, plate reader, dry powder samples (AID 743197); type: functional; conditions: OVCAR-8
[21] = P. falciparum Dd2 growth inhibitors, dose response, SYBR Green, cherry-picked samples (AID 1159567); type: functional, cell-based
[22] = NIH:OVCAR-3 ovarian cancer cell cytotoxicity, dose response, PAX8 inhibitor project, plate reader, dry powder samples (AID 743044); type: functional, cell-based
Paired box protein Pax-8 = Paired box protein Pax-8 (Homo sapiens, UniProt Q06710); assay: inhibitors of PAX8-driven TPO luciferase reporter, dose response, RMG-I cells, cherry-pick (AID 687027); type: functional, cell-based;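 note: luciferase reporter driven by Pax8 target thyroperoxidase promoter measured by SteadyGlo luminescence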
[23] = IGROV1 ovarian cancer cell cytotoxicity, dose response, PAX8 inhibitor project, plate reader, dry powder samples (AID 743043); type: functional, cell-based; conditions: IGROV-1

For `CCCCCc1cc(=O)oc2c(C(CCN3CCCCC3)c3ccc(OC)cc3)c(OC)cc(OC)c12` (stereo not drawn), the EC50 [1] was 15.3 µM (active), the IC50 [2] was > 20 µM (inactive) and the AC50 [3] was 6.49 µM (active).

For `CCC1OC2(C)OC(=N)C1(C#N)C(C#N)(C#N)C2c1ccccc1` (stereo not drawn), the IC50 [4] was > 1.11 µM (active).

For `COc1ccc2[nH]c3c(=S)[nH]cnc3c2c1`, the AC50 [5] was 35 nM (active) and the IC50 (Major prion protein) was 5.91 µM (active).

For `COc1ccc2[nH]c3c(S)ncnc3c2c1`, the IC50 (cells [6]) was > 138 µM (inactive).

In the case of `O=C(O)C1C2C=CC(O2)C1C(=O)NCCc1cccc(Cl)c1` (stereo not drawn), the IC50 (cells [7]) is reported as > 29.9 µM (inactive), the EC50 (cells [8]) is reported as > 29.9 µM (inactive) and the EC50 [9] is reported as 307 nM (active). For the same compound, the IC50 [10] was 3.1 µM (active).

In the case of `CCOC(=O)c1nn(-c2ccccc2)c(C#N)c1NC(=O)c1nn(CC)cc1Br`, the IC50 [11] is reported as > 80 µM (inactive) and the CC50 [12] is reported as > 40 µM (active).

In the case of `CN(C)CCCN(C(=O)c1ccc(C(=O)c2ccccc2)cc1)c1nc2cc3c(cc2s1)OCCO3`, the AC50 [13] is reported as 14.7 µM (active), the IC50 [14] is reported as 3.92 µM (active) and the IC50 [2] is reported as 7.1 µM (active). The IC50 (Bcl-2-related protein A1) was > 20 µM (inactive).

In the case of `c1ccc(CCn2nnnc2C(c2cccs2)N2CCN(Cc3ccc4c(c3)OCO4)CC2)cc1` (stereo not drawn), the IC50 (cells [7]) is reported as > 29.9 µM (inactive), the EC50 (cells [8]) is reported as > 29.9 µM (inactive) and the EC50 [9] is reported as 389 nM (active). The IC50 [10] was 2.19 µM (active).

For `COc1ccccc1OCC(=O)Nc1nc2c(s1)CCCC2`, the CC50 [15] was 29.5 µM (active), the IC50 (Vero) was 24.3 µM (active) and the IC50 (cells [16]) was 28.7 µM (active).

In the case of `Cc1ccn2cc(-c3cnoc3C)nc2c1`, the IC50 [4] is reported as > 1.11 µM (active).

For `COc1ccc(-c2cc(C(=O)NCC3CCCO3)c3cc(C(C)C)ccc3n2)cc1` (stereo not drawn), the IC50 [4] was 0.797 µM (active).

With `COc1ccc(Nc2nnc(-c3ccc(O)cc3)c3ccccc23)cc1C(N)=O` the IC50 (cells [6]) was > 138 µM (inactive), the IC50 (Major prion protein) was 0.759 µM (active) and the IC50 (H9c2) was 15 µM (active).

For `CS(=O)(=O)N(Cc1ccc(Cl)cc1)c1ccc(C(=O)NCCC2=CCCCC2)cc1`, the AC50 [17] was 1.92 µM (active), the AC50 [18] was 6.69 µM (active) and the CC50 [12] was > 40 µM (active).

With `C#CCOCCOCCOCCNc1nc(N2CCN(C(=O)[C@H](CCCCN)n3cc([C@@H](N)CC(N)=O)nn3)CC2)nc(N2CCN(C(=O)[C@H](CCCCN)n3cc([C@@H](N)CC(N)=O)nn3)CC2)n1` the IC50 [14] was 12.5 µM (active), the IC50 [2] was 17.3 µM (active) and the IC50 (Bcl-2-related protein A1) was > 20 µM (inactive).

With `Cc1c2ccncc2c(C)c2c1[nH]c1ccc(OCCN(C)C)cc12` the GI50 (P388/ADR) was 0.0283 µM (active), the GI50 (P388) was 0.0153 µM (active) and the GI50 (SN12K1) was 0.148 µM (active).

With `COC1(O)c2cccc(Cl)c2C(=O)N1C1(C(N)=O)CCCCC1` (stereo not drawn) the GI50 (P388/ADR) was > 100 µM (inactive), the GI50 (P388) was > 100 µM (inactive) and the GI50 (SN12K1) was > 100 µM (inactive).

For `COc1cc([C@@H]2c3cc4c(cc3[C@@H](OC3OC5CO[C@@H](c6cccs6)OC5C(O)C3O)[C@H]3COC(=O)[C@H]23)OCO4)cc(OC)c1O` (stereo partly drawn), the GI50 (P388/ADR) was 0.877 µM (active), the GI50 (P388) was 0.00815 µM (active) and the GI50 (SN12K1) was 0.00838 µM (active).

With `Cn1c(NCCN2CCCC2)nc2cc(-c3ccsc3)sc2c1=O` the AC50 [19] was 55.8 µM (active).

With `C[C@@H]1CN([C@H](C)CO)C(=O)c2c(c3ccccc3n2C)-c2ccccc2CO[C@H]1CN(C)S(=O)(=O)c1ccc(C(F)(F)F)cc1` the AC50 [20] was 27 µM (active), the AC50 [21] was 2.68 µM (active) and the AC50 [22] was 23.5 µM (active). The AC50 (Paired box protein Pax-8) was 4.41 µM (active) and the AC50 [23] was 42.5 µM (active).

With `NC(=O)c1ncn2c(=O)n(CCCl)nnc12` [MITOZOLOMIDE] the GI50 (P388/ADR) was 12.3 µM (inactive), the GI50 (P388) was 13.8 µM (inactive) and the GI50 (SN12K1) was 75.2 µM (inactive).
